The record followed here is a melting point compilation (Tetko et al.; mined from patent text by program, amines drawn as free bases though some values may be those of a salt).

Each structure is given as a SMILES string. Residues, ends and D or L forms follow the SMILES beside them. Where only a bound is given, the exact number is not on record here.

Take `CN1CCC(c2ccc(OC(C)(C)CO)cc2)c2ccccc21` (configuration not stated): the melting point was in the range of 92 to 94 °C. For the molecule `CC(C)=CCn1c(Cl)nc2c1c(=O)[nH]c(=O)n2C`, the melting point lay within 226 to 228 °C. With `Cc1cc(NC2=NCCN2)n(-c2cccc3ccccc23)n1`, the melting point was 221 to 224 °C. In turn, `CCCCCCCCCCCC=C1NN=CN1N` came in with a melting point of 40 to 43 °C. On to `C#Cc1ccc(OC)c(C#N)c1`, for which the melting point was 100 to 101 °C. Then `Fc1ccc(-c2nc(SCCCCSc3nc(-c4ccc(F)cc4)c(-c4ccc(F)cc4)[nH]3)[nH]c2-c2ccc(F)cc2)cc1`, with 172 to 174 °C; and `Oc1cccc(C=Cc2ccc3ccccc3n2)c1`, with 210 to 212 °C.

Turning to `CSCCC(N)C(=O)NC(CCSC)C(=O)O` (stereo not drawn) (H-Met-Met-OH; configuration not given here), the melting point was 234 to 236 °C.

`CCN1CCC(c2cc3ccc(C)cc3c(=O)[nH]2)CC1` displayed a melting point of 239 to 241 °C. Then `OCCc1ccc2sccc2c1`, with 56 to 57 °C; and `CCCCCCC1(CCCCCC)c2cc(Br)ccc2-c2ccc(Br)cc21`, with 64 to 66 °C. Then `Cc1sc2c(c1C(=O)c1ccccc1)CCC2C(N)=O` (configuration not stated), with 165 to 168 °C; and `CNC(=O)c1cccc(NC(=O)COc2ccccc2C)c1`, with 148 °C.

`COC(=O)C(=O)c1cn2c3c(cccc13)C(Br)CC2` (configuration not stated) yielded a melting point of 120 to 122 °C. Regarding `CCOC(=O)NC(C)c1ccc(O)c(C2CCCCC2)c1` (configuration not stated), the melting point was in the range of 97 to 98 °C. In turn, `N#CC1CN1C(=O)NC(=O)c1ccc(Cl)cc1` (configuration not stated) gave a melting point of 160 to 162 °C. In the case of `FN(F)CC1(CN(F)F)COC1`, the melting point was in the range of 43.5 to 44.5 °C.

The molecule `CCOC(=O)C1=C(C)NC(CSC(=N)N)=C(C(=O)OCC)C1c1cccc([N+](=O)[O-])c1` (single isomer, unassigned; (+)) returned a melting point of 124 to 126 °C.

The molecule `CCOc1cc2nc(S(=O)c3ccccc3-c3ccccn3)[nH]c2cc1OCC` (configuration not stated) displayed a melting point of 194 to 195 °C.

`CCOC(=O)c1nc2c(=O)[nH]c3cc(C(F)(F)F)ccc3n2c1C` came in with a melting point of more than 250 °C. For the molecule `CN1C(=O)CC[C@]2(C)c3ccc(-c4cccc5ccccc45)cc3CC[C@@H]12`, the melting point came to 159 °C. The molecule `O=c1[nH][nH]c(=O)c2c(O)c3cc(Cl)ccc3nc12` registered a melting point of 228 to 230 °C.

As to `CCOC(=O)c1cnc2cc(N)ccc2n1`, the melting point is 181 to 183 °C. Then `O=C(O)c1cn(-c2ccc(F)cc2F)c2c(F)c(N3Cc4ccccc4C3)c(F)cc2c1=O`, with 264 to 268 °C; and `COc1ccc(C(=O)Cc2ccc(Br)cc2)c(Cl)c1Cl`, with 163 to 164 °C; and `N#Cc1cc(-c2ccoc2)c2ccc(COc3cc(F)cc(-c4cccnc4)c3)cc2n1`, with 193 to 195 °C. Take `COc1ccc(-c2cncc(OC3SCC(O)C(O)C3O)c2)cc1F` (configuration not stated): the melting point came out at 200 °C. Then `O=c1[nH]c2cc(F)c(NCC3CCCCO3)cc2o1` (configuration not stated), with 185 to 186 °C; and `CNC(=O)c1ccc(Nc2nc(O[C@H]3CCOC3)c3c(-c4ccc5nc(C)oc5c4)c[nH]c3n2)c(C)c1`, with 273 to 274 °C. Then `CCN(CC)C(=O)c1c(C(C)(O)c2cc3cnccc3n2S(=O)(=O)c2ccccc2)ccnc1OC` (configuration not stated), with 236 °C; and `CN(C)CCCC1CCN(C=Nc2ccc3c(c2)C(=O)c2ccc(N=CN4CCC(CCCN(C)C)CC4)cc2C3=O)CC1`, with 171 to 174 °C. Then `COc1c(C)cc(NC(=O)C(C)(C)C)cc1C`, with 126 to 128 °C; and `CS(=O)(=O)c1ccc(C(=O)NCc2ccc3c(c2)CN(C2CCC(=O)NC2=O)C3=O)cc1` (configuration not stated), with 260 to 262 °C; and `CCCCc1nc(=O)c2cc(C(C)(C)O)ccc2[nH]1`, with 190 to 192 °C. `CCOC(=O)c1cnc2ccc(I)cn2c1=O`: the melting point was in the range of 166 to 168 °C.

The molecule `Cc1nn(-c2cc(O)c(Cl)cc2Cl)c(C)c1Cl` displayed a melting point of 172 to 174 °C. The molecule `CC(=O)OC1CSC(Oc2ccc3ccn(C(=O)OC(C)(C)C)c3c2)C(OC(C)=O)C1OC(C)=O` (configuration not stated) displayed a melting point of 147 to 158 °C. For `Cn1cc(C(=O)NCc2ccc(Cl)cc2)c(=O)c2cc(CN3CCOCC3)cc(C#CCn3cnc(Cl)c3Cl)c21`, the melting point was in the range of 178 to 181 °C. Then `Cc1cc(CCCOc2c(C)cc(N3COC(CO)=N3)cc2C)on1`, with 116 to 117 °C; and `CCOC(=O)CC(=O)c1cc(F)c(N=[N+]=[N-])nc1Nc1ccc(F)cc1F`, with 130 to 131 °C. In turn, `COC(=O)c1ccc([C@H]2CCN(C(=O)OC(C)(C)C)C[C@@H]2O)cc1` (racemic) gave a melting point of 146 °C. The molecule `O=C(O)CCCNC(=O)NCCCCC1CCSS1` (configuration not stated) registered a melting point of 94 to 99 °C.

Molecule `CCOCOc1cc(C)ccc1-c1cc(-c2cccc([N+](=O)[O-])c2)c(C#N)c(NC(=O)c2cccs2)n1` had a melting point of 121 to 123 °C. The molecule `CC(C)(C)OC(=O)[C@@H]1CC[C@H](c2ccccc2)N1C(=O)CNC(=O)Nc1cccc(CC(=O)O)c1` showed a melting point of 112 °C.

Turning to `C[C@@H](N)CN(c1ccccn1)S(=O)(=O)O`, the melting point was in the range of 176 to 179 °C. `O=C(Nc1ccc(C(F)(F)F)cc1)Nc1ccc(C(=O)N2CCOCC2)s1` showed a melting point of 250 to 253 °C. `CN(C(=O)c1nn(-c2ccc(Cl)cc2Cl)c(-c2ccc(Cl)cc2)c1O)N1CCCCC1` had a melting point of 118 °C.

Molecule `CN(c1cccs1)c1n[nH]c2ncnc(Nc3cccc(Cl)c3)c12` yielded a melting point of 228 to 229 °C. For the molecule `COc1cc(C(C)C)c2c(c1)S(=O)(=O)N(CBr)C2=O`, the melting point fell in the range of 157 to 159 °C. Then `Cc1cccc(-c2n[nH]cc2-c2ccc(F)c(-c3ccc(S(N)(=O)=O)s3)c2)n1`, with 125 °C. In the case of `CCc1nc2c(N)cccc2o1`, the melting point was found to be 46 °C. `CC(C)(C)OC(=O)Nc1cc(N2CCOCC2)c(I)cc1N` had a melting point of 139 to 143 °C. For the molecule `COC(=O)c1ccc(C(=O)CC(=O)c2ccccc2)cc1`, the melting point lay within 107 to 108 °C.

Consider `CCc1cc2c(NC(C)c3ccccc3)ncnc2s1` (configuration not stated), for which the melting point stood at 141 °C.

Molecule `CCCn1c(=O)n(Cc2ccccc2)c(=O)c2c(Cl)cc(Cl)cc21` had a melting point of 90 to 93 °C. `COCCNC(=O)c1cc2c(nc(C)n2C)c2c1CCC(c1ccccc1)O2` (configuration not stated) showed a melting point of 254 to 256 °C. Then `CC(C)=CCOc1c(-c2ccc(S(C)(=O)=O)cc2)cnn(-c2ccc(F)cc2)c1=O`, with 128 to 132 °C.

`O=C(CC(=O)C(F)(F)F)c1nc2ccc(F)cc2s1` displayed a melting point of 175 to 178 °C.

`COc1cc(CC(=O)Nc2ccc(C3CN(C(=O)CCC(=O)O)CC3C(=O)O)cc2)ccc1NC(=O)Nc1ccccc1C` (configuration not stated): the melting point worked out at 184 °C. Then `O=Cc1cc2c(ccc3ccoc32)c2ccccc12`, with 164 to 166 °C; and `N#CCc1ccc(Oc2ccc3c(c2)S(=O)(=O)NC2CCCN32)cc1` (configuration not stated), with 156 to 158 °C. On to `CCC(=O)NN=C(c1ccc(Cl)cc1)c1ccc(NS(=O)(=O)c2ccccc2)cc1`, for which the melting point was in the range of 238 to 240 °C.

`CC1(C)CCC(C)(C)c2cc(CCOc3ccc(C(=O)O)c(O)c3)ccc21` registered a melting point of 210 to 212 °C. With `COC(=O)c1ccc(CSc2nc3ccccc3[nH]2)cc1`, the melting point was 229 to 231 °C. Then `COc1cc(N)c(Cl)cc1C(=O)NC1CCN(C(C)CC(C(=O)N(C)C)(c2ccccc2)c2ccccc2)CC1OC` (configuration not stated), with 198 °C; and `O=C(OCc1ccccc1)[C@H](Cc1ccccc1)NC(=O)N1CCOCC1`, with 85 to 87 °C.

The molecule `CN(Cc1ccc(NC(=O)C2=Cc3cc(-c4ccc(N5CCOCC5)cc4)ccc3SCC2)cc1)C1CCOCC1` came in with a melting point of 255 to 259 °C. For the molecule `Cc1ccc2c3c(ccc2n1)OCC(CN1CC=C(c2c[nH]c4c(F)cccc24)CC1)O3` (configuration not stated), the melting point lay in the range of 205 to 210 °C. Then `N#Cc1cnc2cc(/C=C/CCN3CCOCC3)ccc2c1Nc1ccc(Cl)cc1Cl`, with 129 to 131 °C. As for `COc1cccc(-c2n[nH]c(-c3ccccc3COC(C)=O)n2)c1`, the melting point was 83 to 87 °C.

As to `COC(=O)Cc1cc(C(=O)c2ccc3cc(-c4ccccc4)[nH]c3c2)sc1-c1ccccc1`, the melting point lay within 183 to 185 °C. `CCOC(=O)C1=C(COCCNS(=O)(=O)N2CCN(C)CC2)NC(C)=C(C(=O)OC)C1c1ccccc1Cl` (configuration not stated) returned a melting point of 137 to 139 °C.

Turning to `COc1cc2c(cc1OC)C(C(CO)CO)=NCC2`, the melting point amounted to 129 °C. The molecule `CCCS(=O)(=O)Cc1cc2oc(S(N)(=O)=O)cc2cn1` registered a melting point of 167 to 169 °C. Then `COc1ccc(CC(=O)NO[C@@H](C)c2ccccc2)cc1`, with 60 to 61 °C; and `N#Cc1cc(C(=O)NNC(=O)c2occc2-c2ccccc2Oc2ccccc2)ccc1O`, with 134 to 135 °C.

`CCOc1ccc(SCCSc2ccc(OCC)cc2)cc1` came in with a melting point of 90 °C. The molecule `O=C(O)c1ccc(CCCBr)cc1` yielded a melting point of 120 °C. On to `CCCCOC(=O)N1C(=O)[C@H](O)[C@@H]1c1ccccc1`, for which the melting point lay within 88 to 89 °C. Then `CC(C)(C)OC(=O)CSC(NCc1ccccc1)=C1C(=O)CCCC1=O`, with 142 to 143 °C; and `Cc1[nH]c(=O)[nH]c1-c1cc(C(C)(C)C)c(O)c(C(C)(C)C)c1`, with more than 270 °C. For `OC1=C(C(=S)Nc2ccccc2)c2nc3ccccc3n2CC1`, the melting point lay within 224 to 227 °C. `COC(=O)CCn1c(C(=O)O)c(C)c2cc(C)ccc21` gave a melting point of 169 °C.

`O=C(c1cc(C(F)(F)F)cc(C(F)(F)F)c1)N1CCN(C(=O)CN2CCC(O)(c3ccccc3)CC2)C(c2ccc(Cl)c(Cl)c2)C1` (racemic): the melting point fell in the range of 104 to 106 °C. Then `C[C@H](CC(=O)c1ccc(C#N)cc1)C(=O)N1CCC(OCC(=O)OC(C)(C)C)CC1`, with 142 °C; and `CCc1[nH]n(-c2c(Cl)cc(Cl)cc2Cl)c2nc(Cc3cccc(OC)c3)nc(=O)c1-2`, with 235 to 238 °C; and `Cc1ccc(C2COc3c(C)c(C)c(NCc4ccccc4)c(C)c32)nc1` (configuration not stated), with 104 to 105 °C.
